According to paper PMC8654920, “PET imaging of brain aromatase in humans and rhesus monkeys by ^11C-labeled cetrozole analogs” (Scientific Reports, 2021):

Biological target: T1, aromatase (Callithrix jacchus, UniProt Q95M61)
T1 construct: gene CYP19A1; microsomal fraction of marmoset placenta
T1 sequence (Q95M61 1-503): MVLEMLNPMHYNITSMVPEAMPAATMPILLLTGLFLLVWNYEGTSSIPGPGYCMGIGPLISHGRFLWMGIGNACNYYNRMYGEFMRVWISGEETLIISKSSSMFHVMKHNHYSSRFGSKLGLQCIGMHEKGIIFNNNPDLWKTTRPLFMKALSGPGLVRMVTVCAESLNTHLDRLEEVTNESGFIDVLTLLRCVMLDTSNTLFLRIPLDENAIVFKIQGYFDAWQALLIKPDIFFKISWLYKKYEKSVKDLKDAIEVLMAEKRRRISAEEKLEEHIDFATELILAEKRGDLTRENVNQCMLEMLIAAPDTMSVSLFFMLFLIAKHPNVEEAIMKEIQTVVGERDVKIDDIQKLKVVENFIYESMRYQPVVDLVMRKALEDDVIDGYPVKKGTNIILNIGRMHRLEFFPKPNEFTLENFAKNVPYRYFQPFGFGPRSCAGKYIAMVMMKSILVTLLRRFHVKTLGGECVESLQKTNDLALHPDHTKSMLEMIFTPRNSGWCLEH
Assay: inhibition of [[…]-14C]testosterone conversion by placental microsomes, TLC autoradiography
Type: biochemical

Row | SMILES | IC50 [nM]
1 | Cc1ccc(CN(c2ccc(C#N)cc2)n2cnnc2)cc1 [cetrozole] | 0.98
2 | Cc1ccc(CN(c2ccc(C#N)cc2)n2cncn2)cc1 [iso-cetrozole] | 0.68
3 | Cc1cccc(CN(c2ccc(C#N)cc2)n2cnnc2)c1 [meta-cetrozole] | 3.5
4 | Cc1ccc(CN(c2ccc([N+](=O)[O-])cc2)n2cnnc2)cc1 [nitro-cetrozole] | 0.73
